In patent US8747882B2, “Catheter assembly with bactericidal effect” (Astra Tech AB, priority 2005, dated 2014):

Tested on: Escherichia coli
Assay: MIC (Minimum Inhibitory Concentration) test, bacterial growth inhibition in synthetic urine (Bioscreen optical density)
Format: cell-based
Conditions: mixed 1+3 with synthetic urine
Method: Experimental tests were conducted in order to verify the above-discussed results. In the experiments, solutions were prepared and sterilized by radiation (E-beam) or heat (autoclave). […] Further, some of the solutions were buffered to a predetermined pH-value with a citrate buffer (a buffer-system consisting of sodium citrates). All solutions were mixed with three volumetric parts synthetic urine in the experiments. Synthetic urine supports bacterial growth and were used as growth medium as well as negative control reference in the experiments. All experiments were made on the bacteria Escherichia coli, since the E. coli bacteria is normally the most relevant bacteria to inhibit for urinary catheter products. MIC (Minimum Inhibitory Concentration) tests were performed to assess the potential of a given substance and concentration to inhibit bacterial growth. The solutions were added to a growth solution containing a specified number of bacteria. The bacteria were then grown in microtiter-wells at 37 deg. C. in a Bioscreen-instrument for a period of at least 40 hours. The bacterial growth/inhibition was monitored in terms of optical density for the solution. Since all microorganisms increase the optical density of a solution during growth and multiplication, the Bioscreen measure of the transmittance/absorbance of light through the sample is correlated to the concentration of microorganisms. The results of the measurements of the different solutions are compared to a negative control reference, i.e. to synthetic urine, for each set of experiments.

[1] = 0.1% w/w, 850 mOsm, pH 6.5, no buffer
[2] = 0.3% w/w, 850 mOsm, pH 6.5, no buffer
[3] = 1.0% w/w, 850 mOsm, pH 6.5, no buffer

Structure (SMILES): C/C=C/C=C/C(=O)[O-].[K+] [KS, Potassium Sorbate]
- Result (index): inhibition time relative to synthetic urine (0.05% w/w, 860 mOsm, pH 5.6, citrate buffer): 1.8 index
- Result (index): inhibition time relative to synthetic urine (0.05% w/w, 860 mOsm, pH 5.9, citrate buffer): 1.7 index
- Result (index): inhibition time relative to synthetic urine (0.05% w/w, 860 mOsm, pH 6.5, no buffer): 1.2 index
- Result (index): inhibition time relative to synthetic urine (0.05% w/w, 870 mOsm, pH 5.0, citrate buffer): >8.0 index
- Result (index): inhibition time relative to synthetic urine [1]: 3.8 index
- Result (index): inhibition time relative to synthetic urine [2]: 5.0 index
- Result (index): inhibition time relative to synthetic urine [3]: 5.3 index

Structure (SMILES): O=C([O-])c1ccccc1.[Na+] [NaB, Sodium Benzoate]
- Result (index): inhibition time relative to synthetic urine [1]: 2.3 index
- Result (index): inhibition time relative to synthetic urine (0.25% w/w, 860 mOsm, pH 5.0, citrate buffer): >8.0 index
- Result (index): inhibition time relative to synthetic urine (0.25% w/w, 860 mOsm, pH 5.6, citrate buffer): >8.0 index
- Result (index): inhibition time relative to synthetic urine (0.25% w/w, 860 mOsm, pH 5.9, citrate buffer): >8.0 index
- Result (index): inhibition time relative to synthetic urine (0.25% w/w, 860 mOsm, pH 6.5, no buffer): 4.0 index
- Result (index): inhibition time relative to synthetic urine [2]: 4.0 index
- Result (index): inhibition time relative to synthetic urine [3]: 5.3 index

Structure (SMILES): [Cl-].[Na+] [NaCl, sodium chloride, reference compound]
- Result (index): inhibition time relative to synthetic urine (0.9% w/w, 900 mOsm, pH 6.5, no buffer): 1.0 index
- Result (index): inhibition time relative to synthetic urine (3.0% w/w, 1700 mOsm, pH 6.5, no buffer): 1.5 index
